Data as given in US5801016A, “DNA fragment, recombinant vector containing the same and method for expressing foreign genes using the same” (Japan Tobacco Inc., priority 1995, dated 1998).

How the values were obtained:
[1] = biological target: T1, rice (Oryza sativa) bran phospholipase D (PLD), purified fraction Mono Q 2nd-II (Oryza sativa subsp. japonica, UniProt Q43007); test: PLD enzyme activity with phosphatidylcholine as substrate, quantifying the choline generated; type: biochemical; conditions: eluted solution Mono Q 2nd-II
T1 construct: bran of rice (Oryza sativa); from tissue; host or cells: rice (Oryza sativa) bran, variety KOSHIHIKARI, purified to Mono Q 2nd-II
T1 sequence (Q43007 47-812): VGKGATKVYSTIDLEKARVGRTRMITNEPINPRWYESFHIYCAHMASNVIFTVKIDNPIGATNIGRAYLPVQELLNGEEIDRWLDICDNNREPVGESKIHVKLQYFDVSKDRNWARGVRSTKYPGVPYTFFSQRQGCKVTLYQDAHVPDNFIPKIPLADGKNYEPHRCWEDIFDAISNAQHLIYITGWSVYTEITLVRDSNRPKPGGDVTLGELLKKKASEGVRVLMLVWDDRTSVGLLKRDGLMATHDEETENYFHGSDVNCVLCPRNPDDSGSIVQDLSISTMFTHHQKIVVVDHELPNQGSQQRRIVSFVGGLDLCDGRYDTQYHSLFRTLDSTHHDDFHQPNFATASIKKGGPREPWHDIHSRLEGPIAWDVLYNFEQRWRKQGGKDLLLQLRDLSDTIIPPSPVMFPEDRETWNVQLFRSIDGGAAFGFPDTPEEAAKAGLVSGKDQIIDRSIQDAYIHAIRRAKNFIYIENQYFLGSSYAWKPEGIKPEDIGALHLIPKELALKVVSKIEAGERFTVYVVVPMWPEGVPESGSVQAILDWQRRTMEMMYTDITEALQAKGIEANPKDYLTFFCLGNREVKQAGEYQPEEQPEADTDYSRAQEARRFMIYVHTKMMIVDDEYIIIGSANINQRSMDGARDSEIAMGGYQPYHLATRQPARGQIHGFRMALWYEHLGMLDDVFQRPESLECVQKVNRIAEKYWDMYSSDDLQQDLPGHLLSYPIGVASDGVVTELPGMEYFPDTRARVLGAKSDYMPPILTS
Description: (§1) For purification, a reference (Takano et al., Journal of Japan Food Industry Association, 34, 8-13 (1987) was referred. The enzyme activity was measured by employing phosphatidylcholine as a substrate and quantifying the choline generated by the enzyme reaction (Imamura et al., J. Biochem. 83, 677-680 (1978)). It should be noted, however, the enzyme reaction was stopped by heat treatment at 95° C. for 5 minutes.
(§2) Properties of the enzymes contained in the two fractions were determined. The buffer solutions used for the measurement of the optimum pH were sodium acetate (pH 4-6), MES-NaOH (pH 5.5-7.0) and Tris-HCl (pH 7-9), all of which have a concentration of 100 mM in all of the buffer solutions. The pH stability means the pH range in which decrease in the enzyme activity is not observed after leaving the enzyme at the respective pH at 25° C. for 30 minutes. The temperature stability was measured by measuring the remaining activity after leaving the enzyme to stand at 4° C., 25° C., 37° C. or 50° C. for 30 minutes. The substrate specificity was measured at a substrate concentration of 5 mM and expressed in terms of the relative activity taking the enzyme activity to phosphatidylcholine as 100.

[2] = biological target: T2, rice (Oryza sativa) bran phospholipase D (PLD), purified fraction Mono Q 2nd-I (Oryza sativa subsp. japonica, UniProt Q43007); test: as above; type: biochemical; conditions: eluted solution Mono Q 2nd-I
T2 construct: bran of rice (Oryza sativa); from tissue; host or cells: rice (Oryza sativa) bran, variety KOSHIHIKARI, purified to Mono Q 2nd-I
T2 sequence (Q43007 47-812): T1 sequence (Q43007 47-812)
Description: as §1, §2

Q: phosphatidylcholine was tested. Which Km [1] did it give?
A: 290 µM

Q: What about the Km [2] of the same substance?
A: 290 µM
